Measured values published in patent publication US20140121235A1, “Method for Treating S6K-Overexpressing Cancers” (Rush University Medical Center, priority 2012, published 2014).
“Also recorded” adds a separate entry of the source.

Experiments:
[1] = tested on: AKT^S473 and S6K1^T389 phosphorylation; assay: Western blot of PI-3 kinase pathway phosphorylation in A375 cells; assay type: cell-based; conditions: A375 cells, dose-dependent
Description: (§1) A375 cells seeded in a 6-well plate were starved in DMEM medium containing 0.5% FBS for 2 hr and treated with the indicated concentration of A77 1726 or PLX 4720 (1 μM) for another 2 hr (A) or treated with A77 1726 (100 μM) for the indicated time (B & C). Cells were harvested and analyzed for protein phosphorylation by specific antibodies as indicated. Protein loading was monitored by stripping membrane and re-probing with antibodies against non-phosphorylated proteins. […] A375 cells seeded in a 6-well plate were starved in DMEM medium containing 05% FBS for 2 hr and treated with the indicated concentration of A77 1726 in the absence or presence of uridine (200 μM). Phosphorylated and total proteins were analyzed by Western blot as described above.
(§2) A375 cells seeded in 6-well plates were starved in DMEM medium containing 0.5% FBS for 2 hr and then pre-treated with vehicle (0.1% dimethyl sulfoxide), LY294002 (10 μM) (A), PPP (1 μM) (B), or the inhibitors of the MAP kinase pathway (PLX4720, 1 μM; U0126, 10 μM; PD98059, 10 μM) (C) for 1 hr. Cells were then treated with A77 1726 (100 μM) or rapamycin (20 nM) as indicated for 2 hr. Cells were harvested and analyzed for protein phosphorylation by specific antibodies as indicated. Protein loading was monitored by stripping membrane and re-probing with antibodies against non-phosphorylated proteins.
(§3) Cells grown in 6-well plates were harvested and lysed in NP-40 lysis buffer (50 mM Tris-HCI (pH 8.0), 150 mM NaCl, 1% NP-40, 5 mM EDTA, 10 μg/ml aprotinin, 10 μg/ml leupeptin, and 1 mM phenylmethylsulfonyl fluoride). After incubation on ice for 30 min, the cell lysates were prepared by spinning down at 4° C., 15,000 rpm for 15 min. After electrophoresis and transfer to Immobolin membrane, proteins of interest were probed with their specific antibodies, followed by horseradish peroxidase-conjugated goat anti-rabbit IgG and SuperSignal Western Pico enhanced chemiluminoscence substrate (Pierce Chemical Co., Rockford, Ill.).
(§4) The PI-3 and MAP kinase pathways play an important role in cell proliferation, differentiation, and cell cycle progress. Multiple genes in these two pathways are frequently mutated and have a commanding role in driving tumorigenesis and tumor cell proliferation (2; 3). […] Here we tested whether A77 1726 affected the activation of MAP and PI-3 kinase pathways. A375 cells grown in 6-well plates were starved in the media containing 0.5% FBS for 2 hr and then treated with the indicated concentration of A77 1726. […] We next explored the effect of A77 1726 in phosphorylation of the molecules in the PI-3 kinase pathway.

[2] = tested on: ERK1/2^T202/Y204 and MEK1/2^S217/S221 phosphorylation; assay: Western blot of MAP kinase pathway phosphorylation in A375 cells; assay type: cell-based; conditions: A375 cells starved in 0.5% FBS; A77 1726 or leflunomide at indicated concentrations, 2 hr
Description: as §1, §2, §3, §4

[3] = rheumatoid arthritis patients treated with leflunomide 20 mg/day; cited from earlier work
[4] = tested on: A375 cells; assay: Cell proliferation assay (ATP-based Cell-Glo); conditions: for inhibitory effect of A77 1726 blocked by uridine: exogenous uridine
Description: A375 cells were seeded in 96-well plates (2000 cells/well) and incubated the indicated concentrations of A77 1726 for 72 hr in the absence or presence of various concentrations PLX4720 (A, C) with or without uridine (200 μM) (B, D). Cell proliferation was analyzed by an ATP-based Cell-Glo assay. One representative of three experiments with similar results was shown. *p<0.01.
A375 cells were grown in complete RPMI 1640 medium supplemented with 10% fetal bovine serum. The cells were seeded in 96-well plates at the density of 2,000/well in the absence or presence of various concentrations of A77 1726, PLX4720, or uridine (200 μM). After incubation for 72 hr, cell proliferation was monitored by using an ATP-based Cell-Glo assay (Promegan, Madison, Wis.) following the manufacturer's instruction.

[5] = tested on: A375 cells; assay: Cell cycle analysis (propidium iodine, flow cytometer); assay type: cell-based; conditions: A375 cells, A77 1726 at 50 μM, 24 hr
Description: (A) Ability of uridine to relieve the cell cycle arrest in the S phase. A375 cells grown in 6-well plates were treated with the indicated concentration of A771726 with or without uridine (200 μM) for 24 hr. Cell cycle was analyzed in a flow cytometer as described in Materials and Methods. (B) Effect of the MAP kinase pathway inhibitors on A77 1726-mediated cell cycle arrest in the S phase. A375 cells were treated with A771726 (100 μM) in the absence or presence of 0.1% DMSO, […] (1 μM), U0126 (10 μM), PD98059 (10 for 24 hr. Single cell suspensions were prepared and analyzed for cell cycle in a flow cytometer. (C) Effect of the PI-3 kinase pathway inhibitors and their effect on A77 1726-mediated cell cycle arrest. A375 cells were treated with A77 1726 (100 μM), rapamycin (20 nM), and/or LY294002 (10 μM). After incubation for 24 hr, cells were harvested and analyzed for cell cycle progress.
Cells were grown in complete RPMI1640 medium with 10% fetal bovine serum in 6-well plates. Upon 60% confluence, the cells were treated with vehicle or with indicated concentrations of A77 1726 or various inhibitors as indicated for 24 hr. Cells were pulsed with 10 μM BrdU for 2 hr. Cells were harvested, denatured with 2N HCl for 5 min at room temperature followed by neutralization with 0.1M borate buffer (pH 8.5). After washing and blocking with normal mouse serum, the cells were stained with an Alexa Fluor 488-conjugated anti-BrdU monoclonal antibody (BD Bioscience), followed by analysis in a flow cytometer. Alexa Fluor 488-conjugated mouse IgG was included as a control. For cell cycle analysis, the cells were harvested and fixed with 2 ml cold 70% ethanol in PBS overnight at 4° C. Fixed cells were then washed 3 times with PBS, treated with RNaseA (100 μg/ml in 0.5 ml PBS). After incubation at room temperature for 30 min, cells were stained with 2.5 μl propidium iodine (10 mg/ml.) and immediately analyzed for DNA content in a flow cytometer.

[6] = cited from earlier work
[7] = tested on: ribosomal protein S6^S235/S236 phosphorylation; assay: Western blot of S6 phosphorylation in A375 cells; assay type: cell-based
Description: as §1, §2, §3, §4

[8] = mice, single dose of 35 mg/kg of leflunomide

SMILES: C/C(O)=C(\C#N)C(=O)Nc1ccc(C(F)(F)F)cc1 [A77 1726]
- effect on AKT^S473 and S6K1^T389 phosphorylation [1]: strongly induced
- effect on ERK1/2 and MEK phosphorylation [2]: rapidly and potently induced; also recorded: strongly induced
- plasma concentration of A77 1726 [3]: ≤ 200 µM
- inhibitory effect of A77 1726 blocked by uridine ([4]; A77 1726 at 200 μM): about 20%
- inhibitory effect of A77 1726 blocked by uridine ([4]; A77 1726 at 50 or 100 μM): 80%
- IC50 ([4]; Homo sapiens, A-375, 72 hr, read-out: IC50, inhibition of A375 proliferation): ~65 µM
- effect on cell cycle [5]: sufficient to arrest cell cycle in the S phase
- serum half-life of A77 1726 ([6]; mice treated with leflunomide at a dose of 35 mg): 15 h
- serum concentration of A77 1726 at 24 hr ([6]; mice, 24 hr after single dose of 35 mg/kg of leflunomide): 250 µM
- peak serum concentration of A77 1726 [6, 8]: 500 µM
- time to peak concentration of A77 1726 [6, 8]: ≤ 4 h
- effect on S6^S235/S236 phosphorylation ([7]; A375 cells, A77 1726 dose-dependent or 100 μM, rapamycin 20 nM, PPP 1 μM): inhibited
- IC50 ([7]; Homo sapiens, A-375, read-out: IC50 to inhibit S6 phosphorylation in cell culture): 50 to 75 µM
